Experimental data: patent publication US20150141336A1, “Pancreatic Peptide Compounds and Use” (Novo Nordisk A/S, priority 2012, published 2015)
Numbered stars: 1 amine (or outer) side, 2 acyl side, 3 side chain; on linkers, the order of the positions; unused ones are H or OH. Side chains are listed from the residue outwards. Peptide text beside a SMILES is read from it. * marks the point of attachment. C18 diacid = O=C(O)CCCCCCCCCCCCCCCCC(=O)*; γGlu = O=C(O)[C@H](CCC(=O)[*:2])N[*:1]; AEEA = NCCOCCOCC(=O)O

Experiment: Assay (II) PK i.v. minipig, in vivo half-life
Parameters: species or system Göttingen mini-pigs
Settings: male, Göttingen, minipig, iv, Half-life minipig, Assay (II)
In short: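 Plasma levels after a single 6 nmol/kg intravenous dose in five male Göttingen mini-pigs were measured by TFC/LC/MS/MS against spiked-plasma calibration, sampling to 240 h. Vehicle: 50 mM K2HPO4, 0.05% tween 80, pH 8.0. Individual profiles analysed non-compartmentally for half-life.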

| Compound | half-life [h] |
| --- | --- |
| CC[C@H](C)[C@H](NC(=O)[C@H](Cc1ccc(O)cc1)NC(=O)[C@H](CCCNC(=N)N)NC(=O)[C@H](CCCNC(=N)N)NC(=O)[C@H](CC(C)C)NC(=O)[C@H](CC(=O)O)NC(=O)[C@H](C)NC(=O)[C@H](C)NC(=O)[C@H](Cc1ccc(O)cc1)NC(=O)[C@H](CCC(N)=O)NC(=O)[C@H](C)NC(=O)[C@H](CCSC)NC(=O)[C@H](CCC(N)=O)NC(=O)[C@H](CCC(=O)O)NC(=O)[C@@H]1CCCN1C(=O)[C@@H](NC(=O)[C@H](C)NC(=O)[C@H](CC(N)=O)NC(=O)[C@H](CC(=O)O)NC(=O)CNC(=O)[C@@H]1CCCN1C(=O)[C@H](Cc1ccc(O)cc1)NC(=O)[C@@H](NC(=O)[C@@H]1CCCN1C(=O)[C@H](CCC(=O)O)NC(=O)[C@@H](N)CC(C)C)C(C)C)[C@@H](C)O)C(=O)N[C@@H](CC(N)=O)C(=O)N[C@@H](CCSC)C(=O)N[C@@H](CC(C)C)C(=O)N[C@@H](CCCCNC(=O)COCCOCCNC(=O)COCCOCCNC(=O)CC[C@H](NC(=O)CCCCCCCCCCCCCCCCC(=O)O)C(=O)O)C(=O)N[C@@H](CCCNC(=N)N)C(=O)N1CCC[C@H]1C(=O)N[C@@H](CCCNC(=N)N)C(=O)N[C@@H](Cc1ccc(O)cc1)C(N)=O [Compound AJ] (H-LEPVYPGDNATPEQMAQYAADLRRYINMLK([AEEA-AEEA-γGlu-C18 diacid])RPRY-NH2; N-terminus and C-terminus assumed) | 80 |
| CC[C@H](C)[C@H](NC(=O)[C@H](Cc1ccc(O)cc1)NC(=O)[C@H](CCCNC(=N)N)NC(=O)[C@H](CCCNC(=N)N)NC(=O)[C@H](CC(C)C)NC(=O)[C@H](CC(=O)O)NC(=O)[C@H](C)NC(=O)[C@H](CCCCNC(=O)COCCOCCNC(=O)COCCOCCNC(=O)CC[C@H](NC(=O)CCCCCCCCCCCCCCCCC(=O)O)C(=O)O)NC(=O)[C@H](Cc1ccc(O)cc1)NC(=O)[C@H](CCC(N)=O)NC(=O)[C@H](C)NC(=O)[C@H](CCSC)NC(=O)[C@H](CCC(N)=O)NC(=O)[C@H](CCC(=O)O)NC(=O)[C@@H]1CCCN1C(=O)[C@@H](NC(=O)[C@H](C)NC(=O)[C@H](CC(N)=O)NC(=O)[C@H](CC(=O)O)NC(=O)CNC(=O)[C@@H]1CCCN1C(=O)[C@H](Cc1ccc(O)cc1)NC(=O)[C@@H](NC(=O)[C@@H]1CCCN1C(=O)[C@H](CCC(=O)O)NC(=O)[C@H](CC(C)C)NC(=O)[C@@H]1CCCN1)C(C)C)[C@@H](C)O)C(=O)N[C@@H](CC(N)=O)C(=O)N[C@@H](CCSC)C(=O)N[C@@H](CC(C)C)C(=O)N[C@H](C(=O)N[C@@H](CCCNC(=N)N)C(=O)N1CCC[C@H]1C(=O)N[C@@H](CCCNC(=N)N)C(=O)N[C@@H](Cc1ccc(O)cc1)C(N)=O)[C@@H](C)O [Compound M] (H-PLEPVYPGDNATPEQMAQYK([AEEA-AEEA-γGlu-C18 diacid])ADLRRYINMLTRPRY-NH2; N-terminus and C-terminus assumed) | 77 |
| CC[C@H](C)[C@H](NC(=O)[C@H](Cc1ccc(O)cc1)NC(=O)[C@H](CCCNC(=N)N)NC(=O)[C@H](CCCNC(=N)N)NC(=O)[C@H](CC(C)C)NC(=O)[C@H](CC(=O)O)NC(=O)[C@H](C)NC(=O)[C@H](C)NC(=O)[C@H](Cc1ccc(O)cc1)NC(=O)[C@H](CCCCNC(=O)COCCOCCNC(=O)COCCOCCNC(=O)CC[C@H](NC(=O)CCCCCCCCCCCCCCCCC(=O)O)C(=O)O)NC(=O)[C@H](C)NC(=O)[C@H](CCSC)NC(=O)[C@H](CCC(N)=O)NC(=O)[C@H](CCC(=O)O)NC(=O)[C@@H]1CCCN1C(=O)[C@@H](NC(=O)[C@H](C)NC(=O)[C@H](CC(N)=O)NC(=O)[C@H](CC(=O)O)NC(=O)CNC(=O)[C@@H]1CCCN1C(=O)[C@H](Cc1ccc(O)cc1)NC(=O)[C@@H](NC(=O)[C@@H]1CCCN1C(=O)[C@H](CCC(=O)O)NC(=O)[C@@H](N)CC(C)C)C(C)C)[C@@H](C)O)C(=O)N[C@@H](CC(N)=O)C(=O)N[C@@H](CCSC)C(=O)N[C@@H](CC(C)C)C(=O)N[C@H](C(=O)N[C@@H](CCCNC(=N)N)C(=O)N1CCC[C@H]1C(=O)N[C@@H](CCCNC(=N)N)C(=O)N[C@@H](Cc1ccc(O)cc1)C(N)=O)[C@@H](C)O [Compound AW] (H-LEPVYPGDNATPEQMAK([AEEA-AEEA-γGlu-C18 diacid])YAADLRRYINMLTRPRY-NH2; N-terminus and C-terminus assumed) | 33 |
| CC[C@H](C)[C@H](NC(=O)[C@H](Cc1ccc(O)cc1)NC(=O)[C@H](CCCNC(=N)N)NC(=O)[C@H](CCCNC(=N)N)NC(=O)[C@H](CC(C)C)NC(=O)[C@H](CC(=O)O)NC(=O)[C@H](C)NC(=O)[C@H](C)NC(=O)[C@H](Cc1ccc(O)cc1)NC(=O)[C@H](CCCCNC(=O)COCCOCCNC(=O)COCCOCCNC(=O)CC[C@H](NC(=O)CCCCCCCCCCCCCCCCC(=O)O)C(=O)O)NC(=O)[C@H](C)NC(=O)[C@H](CCSC)NC(=O)[C@H](CCC(N)=O)NC(=O)[C@H](CCC(=O)O)NC(=O)[C@@H]1CCCN1C(=O)[C@@H](NC(=O)[C@H](C)NC(=O)[C@H](CC(N)=O)NC(=O)[C@H](CC(=O)O)NC(=O)CNC(=O)[C@@H]1CCCN1C(=O)[C@H](Cc1ccc(O)cc1)NC(=O)[C@@H](NC(=O)[C@@H]1CCCN1C(=O)[C@H](CCC(=O)O)NC(=O)[C@H](CC(C)C)NC(=O)[C@@H]1CCCN1)C(C)C)[C@@H](C)O)C(=O)N[C@@H](CC(N)=O)C(=O)N[C@@H](CCSC)C(=O)N[C@@H](CC(C)C)C(=O)N[C@H](C(=O)N[C@@H](CCCNC(=N)N)C(=O)N1CCC[C@H]1C(=O)N[C@@H](CCCNC(=N)N)C(=O)N[C@@H](Cc1ccc(O)cc1)C(N)=O)[C@@H](C)O [Compound O] (H-PLEPVYPGDNATPEQMAK([AEEA-AEEA-γGlu-C18 diacid])YAADLRRYINMLTRPRY-NH2; N-terminus and C-terminus assumed) | 60 |
| CC[C@H](C)[C@H](NC(=O)[C@H](Cc1ccc(O)cc1)NC(=O)[C@H](CCCNC(=N)N)NC(=O)[C@H](CCCCNC(=O)COCCOCCNC(=O)COCCOCCNC(=O)CC[C@H](NC(=O)CCCCCCCCCCCCCCCCC(=O)O)C(=O)O)NC(=O)[C@H](CC(C)C)NC(=O)[C@H](CC(=O)O)NC(=O)[C@H](C)NC(=O)[C@H](C)NC(=O)[C@H](Cc1ccc(O)cc1)NC(=O)[C@H](CCC(N)=O)NC(=O)[C@H](C)NC(=O)[C@H](CCSC)NC(=O)[C@H](CCC(N)=O)NC(=O)[C@H](CCC(=O)O)NC(=O)[C@@H]1CCCN1C(=O)[C@@H](NC(=O)[C@H](C)NC(=O)[C@H](CC(N)=O)NC(=O)[C@H](CC(=O)O)NC(=O)CNC(=O)[C@@H]1CCCN1C(=O)[C@H](Cc1ccc(O)cc1)NC(=O)[C@@H](NC(=O)[C@@H]1CCCN1C(=O)[C@H](CCC(=O)O)NC(=O)[C@H](CC(C)C)NC(=O)[C@@H]1CCCN1)C(C)C)[C@@H](C)O)C(=O)N[C@@H](CC(N)=O)C(=O)N[C@@H](CCSC)C(=O)N[C@@H](CC(C)C)C(=O)N[C@H](C(=O)N[C@@H](CCCNC(=N)N)C(=O)N1CCC[C@H]1C(=O)N[C@@H](CCCNC(=N)N)C(=O)N[C@@H](Cc1ccc(O)cc1)C(N)=O)[C@@H](C)O [Compound I] (H-PLEPVYPGDNATPEQMAQYAADLK([AEEA-AEEA-γGlu-C18 diacid])RYINMLTRPRY-NH2; N-terminus and C-terminus assumed) | 88 |
